Like-named read-outs stand apart in the source and are kept apart here. Ends that are not written are not given here.

The MIC is the lowest concentration found to suppress growth. Usually IC50 stands for the concentration that inhibits the measured activity by half. Usually MBC stands for the smallest concentration meeting the test's criterion for killing. A lower MBC goes with greater bactericidal potency. What is called inhibition is the drop in the measured response relative to a control, in per cent. High values mean a response far below the control, low ones a response near the control.

For assay [1], the system named is E. coli ATCC® 25922. It counts as cell-based, Escherichia coli. The following applies: CLSI broth microdilution, Mueller-Hinton broth, peptide 30 µM, ~6 × 10^6 CFU/mL, 24 h 37 °C, OD600; triplicate, three independent assays; NA = no activity. The procedure: (§1) Activity screening was conducted using the broth microdilution method at a fixed peptide concentration of 30 µM against E. coli ATCC® 8739 and 25922, as well as S. aureus ATCC® 6538 and 29213. The bacterial density used for screening was approximately 6 × 10^6 CFU/mL [30]. Peptide activity measurements were conducted in terms of the growth inhibition percentage. No dose-response curves were generated during the screening phase as a resource optimization strategy in the initial activity evaluation. […] For S. aureus ATCC® 6538 and S. aureus ATCC® 29213, growth inhibition ranged from 0% to 140% and 0% to 98%, respectively (Table 1).
(§2) The evaluation of the antimicrobial activity of the peptides was conducted using the CLSI’s broth microdilution method for bacterial susceptibility testing. For the screening phase, peptides were evaluated at a single 30 μM concentration, in triplicate and in three independent assays, against the E. coli ATCC® 8739, E. coli ATCC® 25922, S. aureus ATCC® 6538, or S. aureus ATCC® 29213 reference USP and CLSI strains. For the determination of MIC, MBC, or IC50, peptides or antibiotics were evaluated in concentrations between 1.56–200 µM. These evaluations were conducted in triplicate and in three independent assays, against the E. coli ATCC® 25922, S. aureus ATCC® 29213, E. faecalis ATCC® 49532, P. aeruginosa ATCC® 9027, and K. pneumoniae ATCC® BAA-1705, or the clinically isolated MDR strain. In detail, 1 mL of a glycerol stock solution of the ATCC® or clinically isolated bacterial strain was added to 9 mL of Mueller-Hinton Broth and incubated for 18 h, 180 rpm and 37 °C (Incubator 1000, Heidolph Instruments, Schwabach, Germany). After the incubation, 1 mL of the previous solution was transferred to a new recipient containing 9 mL of fresh Mueller-Hinton broth and incubated for 4 h, 180 rpm and 37 °C (Incubator 1000, Heidolph Instruments, Schwabach, Germany). During the second incubation, the peptides or the antibiotics were dissolved in PBS pH 7.20 in concentrations between 19.53–2500 µM (MC5 Micro Balance, Sartorius AG, Göttingen, Germany). An amount of 10 µL of either peptide or antibiotic was dispensed in triplicate in 96-well flat bottom culture plates, along with 10 µL of PBS (Negative activity control), BTM-P1 (Positive activity control), or 10 µL of Mueller-Hinton broth (Blank); then, 110 µL of Mueller-Hinton broth was poured in all wells. Following this, the bacteria were suspended in Mueller-Hinton broth up to a concentration of approximately 1.50 × 10^8 CFU/mL, as measured by optical density at 600 nm between 0.06 to 0.11 (0.5 McFarland standard), in a Multiskan SkyHigh spectrophotometer (ThermoFisher Scientific, Waltham, MA, USA). Amounts of 5 µL of the 1.50 × 10^8 CFU/mL suspension were added to each well (except for the blank) for a final well concentration of approximately 6 × 10^6 CFU/mL. The plate was incubated for 24 h at 37 °C (BE 500, Memmert GmbH, Büchenbach, Germany) and optical density was measured at 600 nm in a Multiskan SkyHigh spectrophotometer (ThermoFisher Scientific, Waltham, MI, USA). Following the measurement of optical density, plates were visually inspected to determine the MIC. Subsequently, 100 µL of the concentration associated to the MIC and 100 µL of the next higher concentration were added to Petri dishes containing Mueller-Hinton Agar. The dishes were then incubated for 24 h at 37 °C (BE 500, Memmert GmbH, Büchenbach, Germany). After incubation, the Petri dishes were visually inspected, and the MBC was determined in the absence of growth. IC50 values were interpolated from regressions with correlation values above 0.70. Growth inhibition percentages were calculated as follows: Growth inhibition %=1−AbsPEPTIDE or ANTIBIOTIC−Median AbsBLANK/Median AbsPBS−Median AbsBLANK×100
Background: In broth dilution the organism is exposed to a series of concentrations in liquid medium.

A further assay concerns E. coli ATCC® 8739. It is filed as cell-based, Escherichia coli. The conditions noted are these: CLSI broth microdilution, Mueller-Hinton broth, peptide 30 µM, ~6 × 10^6 CFU/mL, 24 h 37 °C, OD600; triplicate, three independent assays; NA = no activity. The protocol: as §1, §2
Assay [2] has as its system E. coli ATCC® 25922. It is filed as cell-based, Escherichia coli. The following applies: for MIC: 1.56–200 µM, visual inspection, triplicate, three independent assays; for MIC / MBC: 24 h 37 °C; for MBC: plating on Mueller-Hinton agar, absence of growth. The procedure:
(§3) The nine AMPs identified in the initial screening were evaluated at concentrations between 1.56–200 µM, against E. coli ATCC® 25922, S. aureus ATCC® 29213, E. faecalis ATCC® 49532, P. aeruginosa ATCC® 9027, and K. pneumoniae ATCC® BAA-1705 (Supplementary Figures S2–S6). […] Only PvAMP66 and PvAMP172 reached the MBC for S. aureus at 50 µM and 100 µM, respectively (Table 2).
as §2

Assay [3] relates to S. aureus ATCC® 29213. It counts as cell-based, Staphylococcus aureus. The conditions noted are these: for MIC: 1.56–200 µM, 24 h 37 °C, visual inspection, triplicate, three independent assays; for IC50: growth inhibition OD600, 95% confidence interval in parentheses. The protocol:
as §3, §2

The next assay deals with P. aeruginosa ATCC® 9027. It is filed as cell-based, Pseudomonas aeruginosa. The conditions noted are these: for MIC: 1.56–200 µM, 24 h 37 °C, visual inspection, triplicate, three independent assays; for IC50: growth inhibition OD600, 95% confidence interval in parentheses; for MBC: plating on Mueller-Hinton agar, absence of growth. The procedure:
as §3, §2

In assay [4] the test system is S. aureus ATCC® 29213. It is filed as cell-based, Staphylococcus aureus. The following applies: CLSI broth microdilution, Mueller-Hinton broth, peptide 30 µM, ~6 × 10^6 CFU/mL, 24 h 37 °C, OD600; triplicate, three independent assays; NA = no activity. The procedure: as §1, §2
Another assay has as its system S. aureus ATCC® 6538. It counts as cell-based, Staphylococcus aureus. The following applies: CLSI broth microdilution, Mueller-Hinton broth, peptide 30 µM, ~6 × 10^6 CFU/mL, 24 h 37 °C, OD600; triplicate, three independent assays; NA = no activity. The procedure: as §1, §2
Setting [5] is: growth inhibition OD600, interpolated from regression, 95% confidence interval in parentheses, read-out: IC50.

Regarding “CRKLCFRNRCLTYCRGR-NH2 (disulfide (positions not given here)) [PvAMP172, predicted P. verdolaga AMP]”, the “E. coli ATCC® 25922 (Inhibition %)” value in the assay on E. coli ATCC® 25922 [1] was found to be 47.43 ± 2.76 %. In the assay on E. coli ATCC® 8739, the “E. coli ATCC® 8739 (Inhibition %)” value was 64.78 ± 5.46 %. In addition, the MIC in the assay with E. coli ATCC® 25922 [2] is listed as 50 µM; against S. aureus ATCC® 29213 [3], 100 µM; in the assay on P. aeruginosa ATCC® 9027 it was 50 µM. For the same substance, the IC50 with E. coli ATCC® 25922 [2] (setting [5]) was found to be 42.9 µM; in the assay on P. aeruginosa ATCC® 9027, 48.4 µM. Also, the MBC was found to be 50 µM against E. coli ATCC® 25922 [2]; 100 µM in the assay on S. aureus ATCC® 29213 [3] (plating on Mueller-Hinton agar, absence of growth); 50 µM with P. aeruginosa ATCC® 9027.
Turning to GRIFRLLRK-NH2 [PvAMP82], the “E. coli ATCC® 25922 (Inhibition %)” value with E. coli ATCC® 25922 [1] is 74.94 ± 14.27 %. Also, in the assay with E. coli ATCC® 8739, the “E. coli ATCC® 8739 (Inhibition %)” value is 64.01 ± 4.28 %. Further, in the assay with S. aureus ATCC® 29213 [4], the “S. aureus ATCC® 29213 (Inhibition %)” value stood at 43.44 ± 10.24 %. Also, the “S. aureus ATCC® 6538 (Inhibition %)” value with S. aureus ATCC® 6538 was 43.03 ± 6.37 %. In addition, the MIC with E. coli ATCC® 25922 [2] was 100 µM; against P. aeruginosa ATCC® 9027 it was 200 µM. In addition, the MBC with E. coli ATCC® 25922 [2] was determined as 100 µM; in the assay on P. aeruginosa ATCC® 9027, 200 µM.
In the case of IIKKIWK-NH2 [PvAMP32], the “E. coli ATCC® 25922 (Inhibition %)” value with E. coli ATCC® 25922 [1] worked out at 21.19 ± 3.82 %. For the same substance, the “E. coli ATCC® 8739 (Inhibition %)” value with E. coli ATCC® 8739 was determined as 30.73 ± 5.21 %. For the same substance, the “S. aureus ATCC® 29213 (Inhibition %)” value in the assay with S. aureus ATCC® 29213 [4] is 33.17 ± 8.46 %. Further, in the assay with S. aureus ATCC® 6538, the “S. aureus ATCC® 6538 (Inhibition %)” value is 43.62 ± 4.90 %. Besides, the values for the MIC against E. coli ATCC® 25922 [2], in the assay on S. aureus ATCC® 29213 [3] and against P. aeruginosa ATCC® 9027 were 100 µM, 50 µM and 100 µM, respectively. In addition, the values for the IC50 in the assay on E. coli ATCC® 25922 [2] (setting [5]), in the assay with S. aureus ATCC® 29213 [3] and with P. aeruginosa ATCC® 9027 were 94.7 µM, 108 µM and 124 µM, respectively. The MBC against E. coli ATCC® 25922 [2] and in the assay with P. aeruginosa ATCC® 9027 was 100 µM in each case.
On to “QCRKLCFRNRCLTYCRGR-NH2 (disulfide (positions not given here)) [PvAMP177, predicted P. verdolaga AMP]”, for which the “E. coli ATCC® 25922 (Inhibition %)” value in the assay with E. coli ATCC® 25922 [1] worked out at 56.76 ± 3.64 %. Also, in the assay on E. coli ATCC® 8739, the “E. coli ATCC® 8739 (Inhibition %)” value is 93.07 ± 7.11 %. Moreover, the MIC in the assay on E. coli ATCC® 25922 [2] stood at 25 µM; with P. aeruginosa ATCC® 9027 it was 50 µM. For the same substance, the IC50 in the assay on E. coli ATCC® 25922 [2] (setting [5]) worked out at 25.3 µM; in the assay on E. coli ATCC® 25922 [2] (same result in µg/mL), 6.64 mg/L; in the assay with S. aureus ATCC® 29213 [3], 138 µM; in the assay on P. aeruginosa ATCC® 9027, 25.9 µM. The MBC in the assay on E. coli ATCC® 25922 [2] and in the assay with P. aeruginosa ATCC® 9027 was 50 µM in each case.
As for “QCRKLCFRNRCLTYCRGRG-NH2 (disulfide (positions not given here)) [PvAMP183, predicted P. verdolaga AMP]”, in the assay with E. coli ATCC® 25922 [1], the “E. coli ATCC® 25922 (Inhibition %)” value is on record as 64.66 ± 1.26 %. For the same substance, the “E. coli ATCC® 8739 (Inhibition %)” value in the assay with E. coli ATCC® 8739 worked out at 48.26 ± 2.41 %. In the assay on S. aureus ATCC® 29213 [4], this substance had an inhibition of 4.71 ± 21.9%. Besides, in the assay on S. aureus ATCC® 6538, the “S. aureus ATCC® 6538 (Inhibition %)” value was 47.36 ± 1.27 %. Also, the values for the MIC with E. coli ATCC® 25922 [2] and in the assay on P. aeruginosa ATCC® 9027 were 25 µM and 50 µM, respectively. Further, the figures for the IC50 with E. coli ATCC® 25922 [2] (setting [5]) and in the assay with P. aeruginosa ATCC® 9027 were 26.9 µM and 48.3 µM, respectively. In addition, the results for the MBC in the assay with E. coli ATCC® 25922 [2] and against P. aeruginosa ATCC® 9027 were 50 µM and 100 µM, respectively.
Turning to “RSVLKAHCRICRRRG-NH2 (disulfide) [PvAMP164, predicted P. verdolaga AMP]”, the “E. coli ATCC® 25922 (Inhibition %)” value with E. coli ATCC® 25922 [1] is 30.10 ± 3.90 %. Besides, the “E. coli ATCC® 8739 (Inhibition %)” value with E. coli ATCC® 8739 was determined as 20.51 ± 4.31 %. In the assay with S. aureus ATCC® 29213 [4], the “S. aureus ATCC® 29213 (Inhibition %)” value amounted to 12.25 ± 1.29 %. The “S. aureus ATCC® 6538 (Inhibition %)” value in the assay on S. aureus ATCC® 6538 is 24.49 ± 10.18 %. Also, the MIC against E. coli ATCC® 25922 [2] is reported as 200 µM; in the assay with P. aeruginosa ATCC® 9027, 100 µM. Also, the results for the MBC against E. coli ATCC® 25922 [2] and against P. aeruginosa ATCC® 9027 were 200 µM and 100 µM, respectively.

Source of the values: paper PMC10812672, “Short Antimicrobial Peptide Derived from the Venom Gland Transcriptome of Pamphobeteus verdolaga Increases Gentamicin Susceptibility of Multidrug-Resistant Klebsiella pneumoniae” (Antibiotics, 2023).
